Measured values published in patent EP2450046B1, “A MEDICINAL COMPOSITION FOR THE TREATMENT OF BRONCHITIS AND PREPARATION THEREOF” (Hebei Yiling Medicine Research Institute Co., Ltd., priority 2009, dated 2011).
Counter-ions that a name gives are not always drawn.

Tests used:
[1] = test system: panting in the guinea pig induced by histamine plus acetylcholine; test: Dyspnea-relieving effect on panting in the guinea pig induced by histamine plus acetylcholine; type: in vivo, guinea pigs; conditions: Aminophylline 0.05 g/kg i.g. q.d. 3 days, n=10
Source text: Sixty white purebred guinea pigs of Grade I evenly composed of males and females with the mean body weight of 198.55 ± 6.30g, provided by Beijing Keyu Animal Breeding Center, License number: SCXK (Jing) 2002-0005.
The healthy guinea pigs evenly composed of males and females were screened preciously. The guinea pigs were individually placed into the 4 L bell-shape glass container and sprayed with a mixed liquid of 2 % acetylcholine chloride and 0.1 % histamine phosphate in equal volumes at a pressure of 400 mmHg for 20s. […] The guinea pig showing the incubation period for asthmatic convulsion above 120s would not be chosen. […] The animals in the test groups were intragastrically administered q.d. at a volume of 5 ml/kg for consecutive three days, while the animals in the control group were administered with equal amount of physiological saline. An asthma-inducing experiment was performed in 30 min post the final administration. The guinea pigs were individually placed into the 4 L bell-shape glass container and sprayed with a mixed liquid of 2 % acetylcholine chloride plus 0.1 % histamine phosphate in equal volumes at a pressure of 400 mmHg for 20s. […] The incubation period lasting for more than 6 min was counted as 360 s. The experimental results were compared among the groups by t-test.

[2] = test system: citric acid-induced cough; test: Cough-checking effect on citric acid-induced cough in guinea pigs; type: in vivo; conditions: CHT 7mg/kg i.g. q.d. 3 days; n=10
Experimental: • (1) The present medication to be tested, 6.25g crude drugs/g, provided by Shijiazhuang Yiling Pharmaceutical Co. Ltd., lot number: 060501. • (2) GLKCNC as the traditional Chinese medicine control, 1g crude drugs/pill (0.3g of powder per pill), produced by Shanxi Guilong pharmaceutical Co., Ltd., Approval number: SFDA Approval No. Z-11; Lot number of the product: 060112; valid until December 2007. • (3) CHT as the Western medicine control, 10 mg/tablet, produced by Beijing Shuguang Pharmaceutical Co., Ltd., production date: 200606; lot number: 060619; valid until June, 2008.
Sixty purebred guinea pigs of Grade I evenly composed of males and females with the mean body weight of 206.65 ± 6.92g, provided by Beijing Keyu Animal Breeding Center, License number: SCXK (Jing) 2002-0005.
The guinea pigs were individually placed into the sealed 4L bell-shape container with prior to the experiment and a solution of 17.5% citric acid was sprayed for 1 minute at a pressure of 400 mmHg through the glass sparger. The guinea pigs were screened according to the cough number recorded within 5 minutes Guinea pigs with a cough number of less than 10 were rejected and the qualified ones were chosen for the experiment. […]

[3] = test system: aqueous ammonia-induced cough in mice; test: Cough-checking effect on the aqueous ammonia-induced cough in mice; type: in vivo, Kunming mice; conditions: CHT 12mg/kg i.g. q.d. 3 days; n=10
Experimental: • (1) The present medication to be tested, 6.25g crude drugs/g (i.e.,1g of the medication was made from 6.25g crude drugs), provided by Shijiazhuang Yiling Pharmaceutical Co. Ltd., lot number: 060501, and diluted to required concentrations with distilled water in the experiment. • (2) Cloperastine Hydrochloride Tablet (CHT) as the positive control of a western medicine, 10mg/tablet, produced by Beijing Shuguang Pharmaceutical Co., Ltd. lot number: 060619, and valid until June, 2008. • (3) Gui Long Ke Chuan Ning Capsule (GLKCNC) as the positive control of a traditional Chinese medicine, 1g crude drugs/pill (0.3g of powder per pill), produced by Shanxi Guilong pharmaceutical Co., Ltd., Approval number: SFDA Approval No. Z-11; Lot number of the product: 060112; valid until December 2007.
Sixty Kunming mice of Grade II evenly composed of males and females with the mean body weight of 19.90 ± 0.66 g, provided by Institute of Laboratory Animal Science, Chinese Academy of Medical Sciences, License number: SCXK (Jing) 2000-0006. […]

sputum volume in mice = test: Effect on sputum volume in mice measured by phenol red; type: in vivo, ICR mice; conditions: Mucosolvan 16mg/kg i.g. q.d. 3 days; n=10
Experimental: • (1) The present medication to be tested, 6.25 g crude drugs/g, provided by Shijiazhuang Yiling Pharmaceutical Co. Ltd., lot number: 060501. • (2) GLKCNC as the traditional Chinese medicine control, 1g crude drugs/pill (0.3g of powder per pill), produced by Shanxi Guilong pharmaceutical Co., Ltd., Approval number: SFDA Approval No. Z-11; Lot number of the product: 060112; valid until December 2007. • (3) Mucosolvan as a western medicine control, 30mg/tablet, the product of Boehringer Ingelheim Int. Ltd. German, lot number: 206362, distribution lot number:030307. […]
Sixty healthy mice were randomly assigned into the following six groups: (1) the blank control group administered with distilled water (25 ml/kg); (2) the Mucosolvan group (16 mg/kg); (3) the GLKCNC group (2 g crude drugs/kg); (4) the low dosage group of the present medication (L-dosage group, 3 g crude drugs/kg); (5) the medium dosage group of the present medication (M-dosage group, 6 g crude drugs/kg); (6)the high dosage group of the present medication (H-dosage group, 12 g crude drugs/kg). […] The optical density (OD) value of the flush liquid was measured by a UV-visible spectrophotometer UV-120-02 at a wavelength of 546nm, in which the level of phenol red in the flush liquid (µg/ml) was calculated on the basis of phenol red standard curve. […]

sputum volume in rats = test: Effect on sputum volume in rats measured by capillary; type: in vivo
Experimental: • (1) The present medication to be tested, 6.25 g of crude drug/g, provided by Shijiazhuang Yiling Pharmaceutical Co. Ltd., lot number: 060501. • (2) GLKCNC as the traditional Chinese medicine control, 1g crude drugs/pill (0.3g of powder per pill), produced by Shanxi Guilong pharmaceutical Co., Ltd., Approval number: SFDA Approval No. Z-11; Lot number of the product: 060112; valid until December 2007. • (3) Mucosolvan as a western medicine control, 30mg/tablet, the product of Boehringer Ingelheim Int. Ltd. German, lot number: 206362, distribution lot number:030307.
Sixty SPF Wistar […] evenly composed of males and females with the mean body weight of 174.38 ± 7.64 g, provided by Institute of Laboratory Animal Science, Chinese Acadamy of Medical Sciences, and License number: SCXK (Jing) 2000-0006.
The sixty healthy rats were randomly assigned into the following six groups: (1) the blank control group administered with distilled water (10 ml/kg); (2) the Mucosolvan group (11 mg /kg); (3) the GLKCNC group (1.5 g crude drug/kg); (4) the low dosage group of the present medication (L-dosage group, 2 g crude drug/kg); (5) the medium dosage group of the present medication (M-dosage group, 4 g crude drug/kg); (6)the high dosage group of the present medication (H-dosage group, 8 g crude drug/kg). […] The skin of neck was incised and the trachea was separated, on which an orifice was pricked with a syringe needle at the median site of the lower edge of the thyroid cartilage between the two cartilages. A piece of glass capillary with the length of 5 cm and the inner diameter of 0.8 mm was inserted through the orifice in a way such that the glass capillary was just contact the inner wall of the trachea. When the glass capillary was filled up with sputum, it would be replaced immediately with another one. The sputum volume in capillaries was determined in 1 hour prior to the administration. One hour later, the animals in the experimental group were administered duodenally with the medications at a volume of 10 ml/kg, while the animals in the control group were administered with equal amount of physiological saline. […] Comparisons among the groups were performed by t-test with the average amount of the secretion in 1 hour prior to administration serving as a normal value.

[4] = Mucosolvan 11mg/kg duodenal, n=10
[5] = Mucosolvan 11mg/kg duodenal, vs 1 h prior to administration

SMILES: Cn1c(=O)c2[nH]cnc2n(C)c1=O [Aminophylline]
- Falling-down time [1]: 358.5 ± 3.4 s
- Incubation period ([1]; more than 6 min counted as 360 s): 228.0 ± 43.3 s

SMILES: Clc1ccc(C(OCCN2CCCCC2)c2ccccc2)cc1 (centres unmarked) [CHT, Cloperastine Hydrochloride]
- Cough number [2]: 6.10±3.57 times/5min
- Incubation period [2]: 196.80 ± 66.22 s
- Cough number [3]: 28.40±9.75 times /3 min
- Incubation period [3]: 118.30 ± 27.23 s

SMILES: Cl.Nc1c(Br)cc(Br)cc1CNC1CCC(O)CC1 (centres unmarked) [Mucosolvan]
- Amount of excreted phenol red (sputum volume in mice): 1.538 ± 0.486 µg/mL
- Excretion value, 1 h post administration (sputum volume in rats; [4]): 8.76±2.51 cm
- Excretion value, 2 h post administration (sputum volume in rats; [4]): 8.50±1.79 cm
- Excretion value, Change rate, 1 h post administration (sputum volume in rats; [5]): 238.05±77.76%
- Excretion value, Change rate, 2 h post administration (sputum volume in rats; [5]): 67.48±11.94%
- Excretion value, Difference, 1 h post administration (sputum volume in rats; [5]): 6.01±1.56 cm
- Excretion value, Difference, 2 h post administration (sputum volume in rats; [5]): 5.75±1.64 cm
- Excretion value, 1 h prior to administration (sputum volume in rats; Mucosolvan group 11mg/kg, baseline before dosing, n=10): 2.75±1.08 cm
